# Assays:
# conscious dogs = conditions: intravenous injection; cited from earlier work
# [1] = test system: isolated guinea pig ileum; conditions: concentration of 54 mg/ml; cited from earlier work
# anesthetized dogs = conditions: intravenous injection; cited from earlier work
# conscious cats = conditions: intravenous injection; cited from earlier work
# normal mice = test: Excretion promotion study in normal mice (India ink); format: in vivo, ICR mice; conditions: positive control, hypodermic injection 0.1 ml/10 g, p<0.01
# Protocol: In this experiment, 50 male ICR mice weighing 23-27 g respectively were divided randomly into 5 groups with 10 per group, i.e. normal control, positive control and three dose groups at 2.48 mg/kg, 4.96 mg/kg and 9.92 mg/kg, respectively. They were fasted for 24 hours before the experiment.
# The mice in the positive control group were given an injection of 0.1 ml/10 g body weight of Neostigmine hypodermically while the mice in the normal control groups were given rectal administrations of saline of 0.02 ml/10 g body weight. The mice in the three dose groups were given rectal administrations of the Muskmelon-Base extract (diluted with saline to give desired doses and given 0.02 ml/10 g body weight).
# After medication, all the mice were intra-gastrically given infusions of India ink (10% ink, diluted with saline, at the dose 0.02 ml/10 g of body weight). The mice were individually put into a cage with white filter paper flooring. The time of excretion and quantity of the feces were recorded during 4-hour observation periods.
# [2] = test system: mice with gastrointestinal hypo-function induced by atropine; test: Intestine enterokinesia in mice with gastrointestinal hypo-function induced by atropine; format: in vivo, ICR mice; conditions: extract high dose rectal; Neostigmine 0.15 mg/kg hypodermic
# Protocol: In this experiment, 66 male ICR mice weighing 22-26 g respectively were divided randomly into 6 groups with 11 per group. They were fasted for 24 hours before the experiment. The 6 groups were named as: • Normal control group, • Model group, • Positive control group, and • The three dose groups.
# The mice in the normal control group were only injected saline at 0.1 ml/10 g and mice in all other groups were injected 0.25 mg/kg of Atropine hypodermic at 0.1 ml/10 g body weight.
# Twenty minutes after injection Muskmelon-Base extract (diluted with the saline) was given to the mice at the doses of […] by rectal administration and saline solution was given to the mice in normal, control and the model groups. Neostigmine hypodermic injection (0.15 mg/kg) was given to the mice in the positive control group at the dose 0.1 ml/10 g body weight. A further 20 minutes later, an intragastric administration of 10% ink was given to all the mice at the dose 0.2 ml/10 g body weight.
# All the mice were killed and laparotomized in 90 minutes. The intestine from the pylorus to the anus was taken out to measure the whole length of the alimentary tract. The distance from the pylorus to the front the ink impelled was measured to calculate the impelling percentage.
SMILES,diarrhea (conscious dogs),effect on isolated guinea pig ileum [1],enterokinesia (anesthetized dogs),diarrhea (conscious cats),quantity of the feces increased vs normal control (normal mice; 4-hour observation),duration for the first excretion of black feces shortened vs normal control (normal mice),muscle spasm side effect [2]
CC(C)(O)/C=C/C(=O)[C@](C)(O)[C@H]1[C@H](O)C[C@@]2(C)[C@@H]3CC=C4[C@@H](C[C@H](O)C(=O)C4(C)C)[C@]3(C)C(=O)C[C@]12C [Cucurbitacin D],induced diarrhea,did not cause any visible effect,stimulated enterokinesia,induced diarrhea,–,–,–
CN(C)C(=O)Oc1cccc([N+](C)(C)C)c1 [Neostigmine],–,–,–,–,49%,53%,always found in all mice
